Like-named read-outs stand apart in the source and are kept apart here.
Key:
[1] = media pH with purified acids (Table 2); assay type: physicochemical
take-all fungus = assay: agar overlay / PDA plate bioassay against take-all fungus; assay type: cell-based, G. graminis var tritici; settings: for inhibition zone against take-all fungus: FIG. 6B, 12.5 mg purified sugar acid, agar overlay bioassay; for zone of inhibition at 7500 µg/disc / zone of inhibition at 12500 µg/disc / zone of inhibition at 25000 µg/disc: Gaeumannomyces graminis, read-out: Clearance zone radii; for zone of inhibition at 7500 µg/disc: amount 7.5 mg; for zone of inhibition at 12500 µg/disc: amount 12.5 mg; for zone of inhibition at 25000 µg/disc: amount 25.0 mg; for bioactivity against take-all: purified acids, PDA plate bioassay, FIG. 6A/6B; for protection against take-all: summary of Table 2
From the text: A modification of the agar plug assay (Poplawsky et al., 1988) was used to assay for bioactivity of extracts of Pseudomonas strain AN5, or derivative strains thereof, against take-all fungus, wherein an agar overlay assay was used to test activity of specific fractions. This assay involves macerating the take-all fungus grown in Potato Dextrose (PD) broth and seeding it to a Potato Dextrose Agar (PDA) overlay. This PDA overlay was poured onto thick PDA plates. Fractions to be tested for activity were spotted on top of the overlay, and the plates were dried and incubated at 16° C. for 3–5 days.
Active fractions were identified by the appearance of a clearance zone in the plates, within an opaque background of cultured fungus.

[2] = system: Botrytis fabae (Chocolate Spot Fungus); assay: in vitro bioassays against B. fabae; assay type: cell-based
From the text: Accordingly, it is within the scope of the present invention to produce transgenic faba bean plants which produce sugar acids, using the methods described herein, to enhance tolerance of faba beans to B. fabae.

[3] = cited from earlier work
[4] = cited from earlier work; remark: listed apart in the source

Compound | media pH ([1]; amount 4.2 to 8.4 mg) | media pH ([1]; amount 25.0 mg) | inhibition zone against take-all fungus (take-all fungus) | zone of inhibition at 7500 µg/disc (take-all fungus) [mm] | zone of inhibition at 12500 µg/disc (take-all fungus) [mm] | zone of inhibition at 25000 µg/disc (take-all fungus) [mm] | bioactivity against take-all (take-all fungus) | biological activity against take-all relative to gluconic acid (take-all fungus) | relation of amount used to size of inhibition zone (take-all fungus; FIG. 6A, 25, 15, 12.5, 7.5 mg pure gluconic acid) | protection against take-all (take-all fungus) | suppression of growth of B. fabae [2] | pKa [3] | solubility ([4]; in chloroform and methylene chloride) | solubility ([4]; in water, methanol and ethyl acetate)
CC(=O)O [Acetic acid, reference compound] | 2.4 |  |  |  |  |  |  |  |  |  |  |  |  | 
O=C1O[C@H]([C@@H](O)CO)C(O)=C1O [Ascorbic acid, ascorbic acid] |  | 1.9 | strong inhibition zones | 0 | 9 | 20 | possessed activity |  |  |  |  |  |  | 
O=C[C@H](O)[C@@H](O)[C@@H](O)[C@H](O)C(=O)O [Galacturonic acid, galacturonic acid] |  | 1.7 |  | 7 | 20 | 25 |  | not as strong as gluconic acid |  |  |  |  |  | 
O=C(O)[C@H](O)[C@@H](O)[C@H](O)[C@H](O)CO [Gluconic acid, gluconic acid] |  | about 5.0 |  | 7 | 10 | 20 | strong biologically activity |  | positive correlation | confers protection | suppress the growth and/or reproduction |  |  | 
O=C[C@H](O)[C@@H](O)[C@H](O)[C@H](O)C(=O)O [Glucuronic acid, glucuronic acid] |  | 1.7 | strong inhibition zones | 0 | 10 | 20 | possessed activity |  |  |  |  |  |  | 
O=C(O)CCCC(=O)O [Glutaric acid, glutaric acid] |  | 2.0 | strong inhibition zones | 15 | 20 | 25 | possessed activity |  |  |  |  | 4.31 |  | 
O=C(O)CC(O)C(=O)O (stereo not shown) [Malic acid, malic acid] |  | 1.5 | strong inhibition zones | 10 | 20 | 25 | possessed activity |  |  |  |  |  |  | 
O=C(O)c1cccc2nc3ccccc3nc12 [PCA, Phenazine-1-carboxylic acid] |  |  |  |  |  |  |  |  |  |  |  |  | highly soluble | insoluble
O=C([O-])[C@H](O)[C@@H](O)[C@H](O)[C@H](O)CO.[Na+] [Sodium gluconate, reference compound] |  | about 7.0 |  | 0 | 0 | 0 |  |  |  | did not confer significant protection |  |  |  | 
